Assay results reported in patent publication US7175981B2, “Method of diagnosing stage or aggressiveness of breast and prostate cancer based on levels of fatty acid binding proteins” (The United States of America as represented by the …, priority 1998, dated 2007).
“Also recorded” adds a separate entry of the source. Read-outs that look alike come from different tables or passages of the source.

Key:
[1] = Toxicity in mice (body weight, necropsy); format: in vivo; settings: subcutaneously, weekly for 10 weeks
Experimental: We have identified a class of heteropolyanions that have anticancer activity. This class consists of metal ion derivatives of polyoxotungstate, hereinafter referred to as HPA. These heteropolyanions (HPA) are synthesized by methods outlined in Heteropoly and Isopoly Oxometalates, Michael Thor Pope, Springer Verlag, Berlin, Germany 1983. They are water soluble and stable at room temperature and are effective at very low concentrations (1 μM) in cell cultures. […] Oral and intramuscular administration were also tested. Drugs were dissolved in aqueous solutions for administration. Preferred HPA drugs are HPA-Na and HPA-Sm.

[2] = tested on: E-FABP; experiment: RT-PCR of E-FABP expression in MCF-7 cells grown with drug; format: cell-based, human; settings: 1 uM, 48 hr
Experimental: (§1) FIGS. 17a and 17b are graphs showing MCF-7 cells grown in the presence of 1 uM HPA-Na for 48 hr and RNA isolated for FABP measurement.
(§2) For RT-PCR, equal amounts of RNA were used for the reverse transcriptase reaction to make cDNA. The cDNA was then used for the PCR reaction using specific primers for the different fatty acid binding proteins. Also, PCR was performed for genes such as Actin whose level stays generally the same in all the samples. The PCR products were resolved on agarose gel and the picture under UV was saved in the computer as a TIFF file. Using the NIH Image Program 1.6–1, gel optical units were digitized and obtained for each band observed. The values of the FABP PCR fragments were therefore normalized to the Actin values for each sample. In the figures, the data is represented in Optical Density Units versus the FABP and cell type from Breast and Prostate tissues.
(§3) The RNA was isolated using the Trizol method and RT-PCR analysis of the proteins was performed by using primers specific for each FABP. Equal amount of RNA was used for RT-PCR and PCR master mix was used to avoid any handling errors. […] The method of quantitation of PCR product was as follows: for internal quantitation control actin primers was used, all the gels were scanned in a gel scanner and digitized using the NIH-Image program for quantitation. […]

[3] = tested on: brain-FABP; experiment: RT-PCR of brain-FABP expression in MCF-7 cells grown with drug; format: cell-based, human; settings: 1 uM, 48 hr
Experimental: as §1, §2, §3

[4] = tested on: wild type MCF-7 human breast cancer cells; experiment: MCF-7 proliferation assay, wild type cells (cytofluor); format: cell-based; settings: WT MCF-7 breast cancer cells
Description: (§4) Tables 1 and 2 show the concentrations required for IC50 inhibition in cultures of wild type and multi-drug resistant MCF-7 human breast cancer cells, respectively. These tables show polyoxotungstates used on MCF-7 proliferation assay.

[5] = tested on: multi-drug resistant MCF-7 ADR human breast cancer cells; experiment: MCF-7 proliferation assay, multi-drug resistant cells (cytofluor); format: cell-based; settings: ADR MCF-7 breast cancer cells
Description: as §4

[6] = tested on: E-FABP; experiment: RT-PCR of E-FABP expression in LNCAP cells grown with drug; format: cell-based, human; settings: 1 uM
Experimental: (§5) FIG. 18 is a graph showing LNCAP cells grown in the presence of 1 uM HPA-Na for 48 hr. At that time, cells were harvested, RNA prepared by the method of TRIZOL, and levels of various FABPs were measured by RT-PCR.
as §2
as §3, with “FABP.” for “FABP. Equal amount of RNA was used for RT-PCR and PCR master mix was used to avoid any handling errors.”

[7] = tested on: LNCAP prostate cells; experiment: Growth of prostate cancer cells (Cytofluor); format: cell-based, human; settings: prostate (and breast) cancer cells
[8] = tested on: I-FABP; experiment: RT-PCR of I-FABP expression in LNCAP cells grown with drug; format: cell-based, human; settings: in the presence of drug, listed as HPA-Na
Experimental: as §5, §2
as §3, with “FABP.” for “FABP. Equal amount of RNA was used for RT-PCR and PCR master mix was used to avoid any handling errors.”

[9] = tested on: A-FABP; experiment: RT-PCR of A-FABP expression in LNCAP cells grown with drug; format: cell-based, human; settings: 1 uM, 48 hr, listed as HPA-Na
Experimental: as §5, §2
as §3, with “FABP.” for “FABP. Equal amount of RNA was used for RT-PCR and PCR master mix was used to avoid any handling errors.”

[10] = tested on: A-FABP; experiment: RT-PCR of A-FABP expression in MCF-7 cells grown with drug; format: cell-based, human; settings: 1 uM, 48 hr
Experimental: as §1, §2, §3

[11] = experiment 1, read-out: IC50 (Exp. 1)
[12] = experiment 2, read-out: IC50 (Exp. #2)

Substance: K12.5Na1.5[NaP5W30O110] · nH2O
- toxicity in mice (weights, necropsy) [1]: no indications of toxicity was observed
- change in level of E-FABP [2]: dramatically increased
- change in level of brain-FABP [3]: decreased significantly
- IC50 [4, 11]: 3.8 µM
- IC50 [4, 12]: 3.5 µM
- IC50 [5, 12]: 2.1 µM
- change in level of E-FABP [6]: altered in a similar manner
- effect on proliferation of cancer cells [7]: blocked
- change in level of I-FABP [8]: decreasing I-FABP; also recorded: decrease
- change in level of A-FABP [9]: increased the levels of A-FABP in LNCAP to a level similar to the normal values; also recorded: increasing A-FABP; also recorded: markedly elevated
- change in level of A-FABP [10]: dramatically increased

Substance: K12[BiP5W30O110] · nH2O
- IC50 [4, 12]: 5 µM
- IC50 [5, 11]: 3 µM
- IC50 [5, 12]: 2.5 µM

Substance: K12[CeP5W30O110] · nH2O
- IC50 [4, 11]: 4.3 µM
- IC50 [4, 12]: 5 µM
- IC50 [5, 11]: 3.8 µM
- IC50 [5, 12]: 3 µM

Substance: K12[DyP5W30O110] · nH2O
- IC50 [4, 11]: 4.3 µM
- IC50 [4, 12]: 5 µM
- IC50 [5, 11]: 3.8 µM
- IC50 [5, 12]: 2.3 µM

Substance: K12[ErP5W30O110] · nH2O
- IC50 [4, 11]: 4.3 µM
- IC50 [4, 12]: 6 µM
- IC50 [5, 11]: 4 µM
- IC50 [5, 12]: 1 µM

Substance: K12[EuP5W30O110] · nH2O
- IC50 [4, 12]: 4.5 µM
- IC50 [5, 11]: 0.25 µM
- IC50 [5, 12]: 3.8 µM

Substance: K12[GdP5W30O110] · nH2O
- IC50 [4, 11]: 2 µM
- IC50 [4, 12]: 8 µM
- IC50 [5, 11]: 4.3 µM
- IC50 [5, 12]: 4.6 µM

Substance: K12[HoP5W30O110] · nH2O
- IC50 [4, 11]: 3 µM
- IC50 [4, 12]: 4.5 µM
- IC50 [5, 11]: 0.25 µM
- IC50 [5, 12]: 4 µM

Substance: K12[LuP5W30O110] · nH2O
- IC50 [4, 11]: 1 µM
- IC50 [4, 12]: 5 µM
- IC50 [5, 11]: 4.5 µM
- IC50 [5, 12]: 5.5 µM

Substance: K12[SmP5W30O110] · nH2O
- IC50 [4, 11]: 0.5 µM
- IC50 [4, 12]: 2.5 µM
- IC50 [5, 11]: 3.8 µM
- IC50 [5, 12]: 4.1 µM

Substance: K12[TbP5W30O110] · nH2O
- IC50 [4, 11]: 1 µM
- IC50 [4, 12]: 8 µM
- IC50 [5, 11]: 3.5 µM
- IC50 [5, 12]: 4.9 µM

Substance: K12[TmP5W30O110] · nH2O
- IC50 [4, 11]: 0.25 µM
- IC50 [4, 12]: 10 µM
- IC50 [5, 11]: 4 µM
- IC50 [5, 12]: 6 µM

Substance: K12[UP5W30O110] · nH2O
- IC50 [4, 11]: 1 µM
- IC50 [4, 12]: 10 µM
- IC50 [5, 11]: 5.8 µM
- IC50 [5, 12]: 4.8 µM

Substance: K12[YbP5W30O110] · nH2O
- IC50 [4, 11]: 3.8 µM
- IC50 [4, 12]: 3.7 µM
- IC50 [5, 11]: 5 µM
- IC50 [5, 12]: 6.3 µM

Substance: K13[CaP5W30O110] · nH2O
- IC50 [4, 11]: 4.5 µM
- IC50 [4, 12]: 5 µM
- IC50 [5, 11]: 3.8 µM
- IC50 [5, 12]: 6.8 µM
